Here are results for one compound from patent US20090105562A1, “SYSTEM AND METHODS FOR SCREENING OR ANALYZING TARGETS” (TAIPEI VETERANS GENERAL HOSPITAL, priority 2007, published 2009).

What all share (type): cell-based, rat
One experiment concerns NSCs. In words: Real-time RT-PCR mRNA expression in IM-treated NSCs. How it is done:
For real-time RT-PCR, the total RNA was extracted using the RNAeasy kit (Qiagen, Valencia, Calif., USA). Briefly, total RNA (1 μg) of each sample was reverse transcribed in 20 μL using 0.5 μg of oligo dT and 200 U Superscript II RT (Invitrogen, Carlsbad, Calif., USA). The amplification was carried out in a total volume of 20 μl containing 0.5 μM of each primer, 4 mM MgCl2, 2 μl LightCycler™ FastStart DNA Master SYBR green I (Roche Molecular Systems, Alameda, Calif., USA) and 2 μl of 1:10 diluted cDNA. The quantification in the unknown samples was performed with LightCycler Relative Quantification Software version 3.3 (Roche Molecular Systems, Alameda, Calif., USA). In each experiment, the GAPDH housekeeping gene was amplified as a reference standard. GAPDH primers were designed: GAPDH(f): […] (nt 414-434, GenBank accession no. BC059110.1), GAPDH(r): ATGACCTTGCCCACA GCCTT (nt 713-733). Other target gene primers were as follows: BDNF(f) 5′-CCAAGGCAGGTTCAA GAG-3′. BDNF(r): 5′-CCAGCAGAAAGAGAAGAGG-3′ (nt 146-331, GenBank accession no.NM_170735). Bcl-2(f): […] (nt 527-550, GenBank accession no. NM_016993.1), Bcl-2(r): GTTGTCCA CCAGGGGTGACAT (nt 721-742). Bax(f): GTGGT TGCCCTCTTCTACTTTGC (nt 328-351, GenBank accession no. NM_017059.1), Bax(r): GAGGACT CCAGCCACAAAGATG (nt 522-544). MAP2(f): GTTTACATTGTTCAGGAC CTCATGG (nt 316-341); MAP2(r): TCGGTAAGAAAGCC AGTGTGGT (nt 551-573. GenBank accession no. NM_U12008.1). Reactions were prepared in duplicate and heated to 95° C. for 10 minutes followed by 40 cycles of denaturation at 95° C. for 10 seconds, annealing at 55° C. for 5 seconds, and extension at 72° C. for 20 seconds. All PCR reactions were performed in duplicate. Standard curves (cycle threshold values versus template concentration) were prepared for each target gene and for the endogenous reference (GAPDH) in each sample. To confirm the specificity of the PCR reaction, PCR products were electrophoresed on a 1.2% agarose gel.
(In general: In qPCR the cycle at which signal appears reflects the starting amount.)

The next experiment deals with LPS-treated NSCs. In words: TUNEL assay of LPS-induced apoptosis in NSCs. Conditions: IM treatment vs without IM. The procedure: An avidin-biotin complex method was used for the immunohistochemical staining in the differentiated NSCs. Following washes with the 3% hydrogen peroxide, sodium azide and antigens were retrieved using a microwave. Each slide was then treated with antibodies for Bcl-2 (Upstate Biotechnology, Waltham, Mass., USA), Nestin (Chemicon, Temecula, Calif., USA), 4′, 6-diamidino-2-phenylindole (DAPI; Chemicon, Temecula, Calif., USA) and MAP2 (Chemicon, Temecula, Calif., USA). Immunoreactive signals were detected with a mixture of biotinylated rabbit anti-mouse IgG and Fluoresave (Calbiochem, La Jolla, Calif., USA) under confocal microscopy (Olympus, FV300). Each individual sample was analyzed in triplicate. Furthermore, apoptotic cells were identified by the TUNEL method (In Situ Cell Death Detection Kit, POD, Roche Boehringer Mannheim Corp., IN, USA) as described in Chiou et al., J. Immunol. 167, 4098-4103, 2001. Briefly, the cells with cover slips were washed with 1× phosphate buffered saline (PBS), fixed with 4% of paraformaldehyde for 10 minutes, permeabilized with 0.1% of triton X-100 for 5 mins, and incubated with the TUNEL reagent provided for 1 hour. […] The percentage of TUNEL-positive cells was measured by the average of 6 different areas as compared to the total cell number in the same section slide (under a×200 power field of a light microscope).

Experiment [1] relates to NSCs isolated from the hippocampus of adult rats. In words: MTT cell viability/survival of NSCs treated with IM. Conditions: 3 μM IM; Day 3, Day 5 and Day 7 cultures; p<0.05.
Method: Adult Sprague-Dawley (SD) rats (8 weeks old, 250 g) were anesthetized with intraperitoneal phenobarbital (Sigma, USA), and the location of their brains was mapped. Then, the brain was surgically separated from the hippocampus region. In brief, tissues from the hippocampus of adult rats were dissociated and incubated in Hank's balanced salt solution (HBSS) containing collagenase (78 units/ml) and hyaluronidase (38 units/ml) for 10 minutes at 37° C. The tissues were then mechanically dissected and placed in a trypsin solution (1.33 mg/ml) at 37° C. for another 10 minutes. Dissociated cells were then centrifuged at 150 GG for 5 minutes. […] Viable cells were counted by trypan blue exclusion and plated as 5000 cells/200 μL per well in 96-well plates (Corning Inc, Acton, Mass., USA) with no substrate pretreatment. […] The amount of MTT fromazon product was determined using a microplate reader and the absorbance was measured at 560 nm (SpectraMax 250, Molecular Devices, Sunnyvale, Calif., USA). […] Each individual sample was analyzed in triplicate.
Where [2] appears, read: Day 3, Day 5 and Day 7 of IM-treated NSCs.
Setting [3] is: Day 5 and Day 7 IM-treated vs non IM-treated NSCs, p<0.05.

Take `CN(C)CCCN1c2ccccc2CCc2ccccc21` [IM, imipramine]: the “level of Bcl-2 mRNA” value with NSCs (1, 3 and 5 μM IM, Day 7, vs Day 7 non-IM-treated NSCs) was “significantly increased”. In the experiment on NSCs (setting [2]), the “expression of Bad” value was “not activated” and the “expression of Bax” value is “not activated”. In the experiment with NSCs (setting [3]), the “mRNA level of Bcl-2” value was “significantly increased” and the “mRNA level of MAP2” value is on record as “significantly increased”. Moreover, the “LPS-induced apoptosis in NSCs (TUNEL assay)” value in the experiment on LPS-treated NSCs is reported as “protected against LPS-induced apoptosis”. Moreover, in experiment [1], the “cell survival (MTT assay)” value was “significantly increased”.
